target: T1, α4β7 integrin (Homo sapiens, UniProt P13612+P26010); assay: MAdCAM-1/α4β7 integrin binding inhibitory activity evaluation test (RPMI-8866 cells binding to MAdCAM-1/Fc); type: cell-based; conditions: recombinant mouse MAdCAM-1/Fc, no serum
T1 construct: a cell line RPMI-8866, which is known to express α4β7 integrin; endogenous in cells; host or cells: RPMI-8866 (human B cell line)
T1 sequence (P13612 34-1032): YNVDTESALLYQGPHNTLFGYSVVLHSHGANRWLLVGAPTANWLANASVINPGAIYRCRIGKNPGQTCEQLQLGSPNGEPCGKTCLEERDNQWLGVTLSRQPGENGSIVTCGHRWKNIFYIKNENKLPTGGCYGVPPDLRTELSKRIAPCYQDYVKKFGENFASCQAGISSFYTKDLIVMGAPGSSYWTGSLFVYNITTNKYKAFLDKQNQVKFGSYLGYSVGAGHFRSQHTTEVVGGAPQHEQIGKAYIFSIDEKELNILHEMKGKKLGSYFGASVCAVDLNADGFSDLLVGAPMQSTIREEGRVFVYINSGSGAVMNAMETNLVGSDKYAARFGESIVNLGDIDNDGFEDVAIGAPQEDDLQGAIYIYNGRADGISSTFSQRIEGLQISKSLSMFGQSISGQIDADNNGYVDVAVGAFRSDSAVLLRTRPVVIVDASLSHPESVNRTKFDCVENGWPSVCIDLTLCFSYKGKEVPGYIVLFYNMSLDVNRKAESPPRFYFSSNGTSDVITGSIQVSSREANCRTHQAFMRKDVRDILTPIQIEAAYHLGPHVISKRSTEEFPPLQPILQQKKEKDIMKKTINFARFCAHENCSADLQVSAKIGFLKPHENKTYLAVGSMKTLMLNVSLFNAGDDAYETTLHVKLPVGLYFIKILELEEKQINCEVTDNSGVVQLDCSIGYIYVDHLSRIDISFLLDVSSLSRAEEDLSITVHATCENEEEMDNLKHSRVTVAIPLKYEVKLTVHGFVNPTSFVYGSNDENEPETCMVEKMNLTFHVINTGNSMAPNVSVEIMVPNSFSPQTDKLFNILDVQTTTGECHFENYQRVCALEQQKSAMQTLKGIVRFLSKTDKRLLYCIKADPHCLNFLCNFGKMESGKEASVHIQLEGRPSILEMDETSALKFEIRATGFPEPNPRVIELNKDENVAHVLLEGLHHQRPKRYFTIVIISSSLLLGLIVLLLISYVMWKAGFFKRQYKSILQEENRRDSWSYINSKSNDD
T1 sequence (P26010 20-798): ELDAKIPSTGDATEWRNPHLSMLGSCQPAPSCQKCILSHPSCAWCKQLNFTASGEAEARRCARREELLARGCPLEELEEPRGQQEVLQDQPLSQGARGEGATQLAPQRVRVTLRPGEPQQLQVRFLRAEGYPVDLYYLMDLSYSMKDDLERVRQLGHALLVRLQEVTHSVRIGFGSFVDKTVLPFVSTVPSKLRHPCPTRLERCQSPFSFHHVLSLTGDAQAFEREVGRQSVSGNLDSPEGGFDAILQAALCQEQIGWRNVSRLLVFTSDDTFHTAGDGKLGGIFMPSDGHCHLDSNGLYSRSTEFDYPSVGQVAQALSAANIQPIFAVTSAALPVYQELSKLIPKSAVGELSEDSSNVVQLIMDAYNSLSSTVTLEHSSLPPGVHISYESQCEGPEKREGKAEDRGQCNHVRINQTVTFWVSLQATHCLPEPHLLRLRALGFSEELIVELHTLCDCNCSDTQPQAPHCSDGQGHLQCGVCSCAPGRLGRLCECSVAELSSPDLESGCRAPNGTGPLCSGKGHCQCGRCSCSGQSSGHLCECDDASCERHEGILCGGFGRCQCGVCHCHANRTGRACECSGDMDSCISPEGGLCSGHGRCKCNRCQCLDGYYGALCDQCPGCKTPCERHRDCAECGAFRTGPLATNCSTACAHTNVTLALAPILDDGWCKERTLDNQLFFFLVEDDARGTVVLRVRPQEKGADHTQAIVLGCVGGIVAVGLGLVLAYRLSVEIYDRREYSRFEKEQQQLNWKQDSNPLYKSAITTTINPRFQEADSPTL
Description: (2) MAdCAM-1/α4β7 Integrin Binding Inhibitory Activity Evaluation Test
Each test substance was measured in terms of an ability to inhibit the MAdCAM-1 binding of a human B cell line, namely, a cell line RPMI-8866, which is known to express α4β7 integrin.
A solution of recombinant mouse MAdCAM-1/Fc (R&D Systems, Inc.) (0.75 μg/mL) diluted with a buffer A (carbonate buffer, pH 9.6) was added in an amount of 50 μL/well to a 96-well microtiter plate, followed by incubation at 4° C. overnight. After the plate was washed with PBS once, 150 μL/well of Block Ace (Snow Brand Milk Products Co., Ltd.) was added, followed by incubation at room temperature for 2 hours. After removal, the plate was washed with PBS once.
Then, 100 μL of the RPMI-8866 cells (2×10^6 cells/mL) and 100 μL of the test substance at each of various concentrations diluted with a binding buffer (DMEM containing 40 mM HEPES, 0.2% BSA, and 4 mM MnCl2) were added on the plate coated with the MAdCAM-1/Fc (5×10^5 cells/well), followed by incubation at 30° C. for 15 to 60 minutes. After the cells were bound to the wells, the plate was washed with PBS to remove unbound cells. A buffer C (PBS containing 1.5% Triton X-100) in an amount 50 μL/well was added to the plate to lyse the bound RPMI-8866 cells. After 30 μL of a substrate buffer (Promega, CytoTox 96 Non-Radioactive Cytotoxicity Assay) was added to 30 μL of the cell lysate, a reaction was allowed to proceed at room temperature in the dark for 30 minutes. After 30 μL of a stop solution (Promega, CytoTox 96 Non-Radioactive Cytotoxicity Assay) was added to each, and then an absorbance at 490 nm was measured using a plate reader. The absorbance obtained here represents a detection result of an activity of lactate dehydrogenase (LDH) eluted in the supernatant of each well, that is, the absorbance is proportional to the number of RPMI-8866 cells bound to the MAdCAM-1 and thus remaining on the plate. The test was performed in duplicate. Provided that the absorbance of the well containing no test substance was 100%, a cell binding rate with the test substance at each of the various concentrations was figured out, and a concentration IC50 which brought about 50% binding inhibition was calculated.

Structure (SMILES) | IC50
Cc1c(C)n(C)c(=O)n(-c2ccc(C[C@H](NC(=O)c3cc(F)c(NS(=O)(=O)c4ccc(NC(=O)C5(c6ccccc6)CC5)cc4)cc3F)C(=O)O)cc2)c1=O [Compound A30] | 0.57 nM
Cn1c(=O)n(-c2ccc(C[C@H](NC(=O)c3cc(F)c(NS(=O)(=O)c4ccc(NC(=O)C(C)(C)C)cn4)cc3F)C(=O)O)cn2)c(=O)c2ccncc21 [Compound A31] | 0.71 nM
Cc1c(C)n(C)c(=O)n(-c2ccc(C[C@H](NC(=O)c3cc(F)c(NS(=O)(=O)c4ccc(NC(=O)C(C)(C)C)cn4)cc3F)C(=O)O)cn2)c1=O [Compound A32] | 0.62 nM
Cn1c2c(c(=O)n(-c3ccc(C[C@H](NC(=O)c4cc(F)c(NS(=O)(=O)c5ccc(NC(=O)C(C)(C)C)cc5)cc4F)C(=O)O)cc3)c1=O)COCC2 [Compound A33] | 0.45 nM
Cc1c(C)n(C)c(=O)n(-c2ccc(C[C@H](NC(=O)c3cc(F)c(NS(=O)(=O)c4ccc(-n5ccc(C6CCOCC6)cc5=O)cc4)cc3F)C(=O)O)cc2)c1=O [Compound A34] | 3.4 nM
Cc1c(C)n(C)c(=O)n(-c2ccc(C[C@H](NC(=O)c3cc(F)c(NS(=O)(=O)c4ccc(N(C)C(=O)C(C)(C)C)cc4)cc3F)C(=O)O)cc2)c1=O [Compound A35] | 9.8 nM
CN1C(=O)N(c2ccc(S(=O)(=O)Nc3cc(F)c(C(=O)N[C@@H](Cc4ccc(-n5c(=O)c6ccncc6n(C)c5=O)nc4)C(=O)O)cc3F)cc2)C(=O)C1(C)C [Compound A38] | 5.2 nM
CN1CCc2c(n(C)c(=O)n(-c3ccc(C[C@H](NC(=O)c4cc(F)c(NS(=O)(=O)c5ccc(NC(=O)C(C)(C)C)cc5)cc4F)C(=O)O)cc3)c2=O)C1 [Compound A41] | 0.29 nM
Cn1c2c(c(=O)n(-c3ccc(C[C@H](NC(=O)c4cc(F)c(NS(=O)(=O)c5ccc(NC(=O)C(C)(C)C)cc5)cc4F)C(=O)O)nc3)c1=O)CCCC2 [Compound A47] | 0.74 nM
Cc1c(C)n(C(C)C)c(=O)n(-c2ccc(C[C@H](NC(=O)c3cc(F)c(NS(=O)(=O)c4ccc(NC(=O)C(C)(C)C)cc4)cc3F)C(=O)O)cc2)c1=O [Compound A48] | 2 nM
Cc1c(C)n(C)c(=O)n(-c2ccc(C[C@H](NC(=O)c3cc(F)c(NS(=O)(=O)c4cccc(NC(=O)C(C)(C)C)c4)cc3F)C(=O)O)cc2)c1=O [Compound A49] | 2.9 nM
Cc1c(C)n(C)c(=O)n(-c2ccc(C[C@H](NC(=O)c3cc(F)c(NS(=O)(=O)c4cccc(NC(=O)C(C)(C)C)c4)cc3F)C(=O)O)cn2)c1=O [Compound A50] | 6.4 nM
Cc1c(CO)c(=O)n(-c2ccc(C[C@H](NC(=O)c3cc(F)c(NS(=O)(=O)c4ccc(NC(=O)C(C)(C)C)cc4)cc3F)C(=O)O)cc2)c(=O)n1C [Compound A51] | 3.1 nM

More lines, now with the values ahead:

IC50 | Structure (SMILES)
0.56 nM | Cc1c(C)n(C)c(=O)n(-c2ccc(C[C@H](NC(=O)c3cc(F)c(NS(=O)(=O)c4ccc(NC(=O)C(C)(C)C)cc4)cc3F)C(=O)O)cn2)c1=O [Compound A28]
0.95 nM | Cn1c(=O)n(-c2ccc(C[C@H](NC(=O)c3cc(F)c(NS(=O)(=O)c4ccc(NC(=O)C5(c6ccccc6)CC5)cc4)cc3F)C(=O)O)cn2)c(=O)c2ccncc21 [Compound A29]
0.94 nM | COc1cc2c(=O)n(-c3ccc(C[C@H](NC(=O)c4cc(F)c(NS(=O)(=O)c5ccc(NC(=O)C(C)(C)C)cc5)cc4F)C(=O)O)cc3)c(=O)n(C)c2cn1 [Compound A36]
1.1 nM | Cc1cn(C)c(=O)n(-c2ccc(C[C@H](NC(=O)c3cc(F)c(NS(=O)(=O)c4ccc(NC(=O)C(C)(C)C)cc4)cc3F)C(=O)O)cc2)c1=O [Compound A37]
0.74 nM | Cn1c2c(c(=O)n(-c3ccc(C[C@H](NC(=O)c4cc(F)c(NS(=O)(=O)c5ccc(NC(=O)C(C)(C)C)cc5)cc4F)C(=O)O)cn3)c1=O)CCOC2 [Compound A40]
0.77 nM | Cn1ccc(=O)n(-c2ccc(C[C@H](NC(=O)c3cc(F)c(NS(=O)(=O)c4ccc(NC(=O)C(C)(C)C)cc4)cc3F)C(=O)O)cc2)c1=O [Compound A42]
0.42 nM | Cn1cnc2c1c(=O)n(-c1ccc(C[C@H](NC(=O)c3cc(F)c(NS(=O)(=O)c4ccc(NC(=O)C(C)(C)C)cc4)cc3F)C(=O)O)cc1)c(=O)n2C [Compound A43]
0.48 nM | Cn1c2c(c(=O)n(-c3ccc(C[C@H](NC(=O)c4cc(F)c(NS(=O)(=O)c5ccc(NC(=O)C(C)(C)C)cc5)cc4F)C(=O)O)cn3)c1=O)COCC2 [Compound A44]
1.6 nM | Cc1cc(=O)n(-c2ccc(C[C@H](NC(=O)c3cc(F)c(NS(=O)(=O)c4ccc(NC(=O)C(C)(C)C)cc4)cc3F)C(=O)O)cn2)c(=O)n1C [Compound A45]
0.76 nM | Cc1cc(=O)n(-c2ccc(C[C@H](NC(=O)c3cc(F)c(NS(=O)(=O)c4ccc(NC(=O)C(C)(C)C)cc4)cc3F)C(=O)O)cc2)c(=O)n1C [Compound A46]
0.7 nM | Cn1c2c(c(=O)n(-c3ccc(C[C@H](NC(=O)c4cc(F)c(NS(=O)(=O)c5ccc(NC(=O)C(C)(C)C)cc5)cc4F)C(=O)O)cn3)c1=O)CCCC2 [Compound A52]
2 nM | Cn1ccc(=O)n(-c2ccc(C[C@H](NC(=O)c3cc(F)c(NS(=O)(=O)c4ccc(NC(=O)C(C)(C)C)cc4)cc3F)C(=O)O)cn2)c1=O [Compound A53]
1.6 nM | Cc1cn(C)c(=O)n(-c2ccc(C[C@H](NC(=O)c3cc(F)c(NS(=O)(=O)c4ccc(NC(=O)C(C)(C)C)cc4)cc3F)C(=O)O)cn2)c1=O [Compound A54]
2.2 nM | Cn1ccc(=O)n(-c2ccc(C[C@H](NC(=O)c3cc(F)c(NS(=O)(=O)c4ccc(NC(=O)C5(C(F)(F)F)CC5)cc4)cc3F)C(=O)O)cn2)c1=O [Compound A55]
1.2 nM | Cc1cn(C)c(=O)n(-c2ccc(C[C@H](NC(=O)c3cc(F)c(NS(=O)(=O)c4ccc(NC(=O)C5(C(F)(F)F)CC5)cc4)cc3F)C(=O)O)cn2)c1=O [Compound A56]
2 nM | Cn1ccc(=O)n(-c2ccc(C[C@H](NC(=O)c3cc(F)c(NS(=O)(=O)c4ccc(NC(=O)C(C)(C)C(F)(F)F)cc4)cc3F)C(=O)O)cn2)c1=O [Compound A57]

From patent publication US10562898B2, “Substituted benzenesulfonamides as inhibitors of alpha-4 beta-7 integrin activity” (EA PHARMA CO., LTD., priority 2016, dated 2020)
